# Target: PI3Kgamma (Homo sapiens, UniProt P48736)
# Assay: Biochemical PI3Kgamma (TR-FRET Adapta Universal Kinase Assay)
# Conditions: mean of n measurements, read-out: PIK3g/ IC50
# Procedure: Test compounds were dissolved in DMSO (10 mM) and transferred into 1.4 mL flat bottom or V-shaped Matrix tubes carrying a unique 2D matrix chip by individual Novartis compound hubs. The numbers of these chips were distinctively linked to Novartis Pharma Numbers. The stock solutions were stored at −20° C. if not used immediately. For the test procedure the vials were defrosted and identified by a scanner whereby a working sheet was generated that guided the subsequent working steps.
# Compounds were either manually diluted in DMSO for individual experiments (96 wells enabling 10 cpds at 8 (single points) concentrations) as described in or prepared as described below if tested for profiling in 384-wells. This format enabled the assay of maximally 40 individual test compounds at 8 concentrations (single points) including 4 reference compounds. The dilution protocol included the production of “pre-dilution plates”, “master plates” and “assay plates”.
# 96 polypropylene well plates were used as pre-dilution plates. A total of 4 pre-dilution plates were prepared including 10 test compounds each on the plate positions A1-A10, one standard compound at A11 and one DMSO control at A12. Programs have been written to run these pipetting steps on the HamiltonSTAR robots.
# 100 μL of individual compound dilutions including standard compound and controls of the 4 “pre-dilution plates” were transferred into a 384 “master plate” including the following concentrations 1,820, 564, 182, 54.6, 18.2, 5.46, 1.82 and 0.546 μM, respectively in 90% DMSO.
# Identical “assay plates” were then prepared by pipetting 50 nL each of compound dilutions of the “master plates” into 384-well “assay plates”. The compounds were mixed with 4.5 μL of assays components plus 4.5 μL enzyme corresponding to a 1:181 dilution enabling the final concentration of 10, 3.0, 1.0, 0.3, 0.1, 0.03, 0.01 and 0.003 μM, respectively. The preparation of the “master plates” was handled by the Matrix PlateMate Plus robot and replication of “assay plates” by the HummingBird robot.
# The TR-FRET Adapta™ Universal Kinase Assay Kit was purchased from Invitrogen Corporation (Carlsbad/CA, USA) (Cat. No. PV5099). The kit contains the following reagents: Adapta Eu-anti-ADP Antibody (Europium labeled anti-ADP antibody in HEPES buffered saline, Cat. No. PV5097), Alexa Fluor® 647-labeled ADP tracer (Alexa Fluor® 647-labeled ADP tracer in HEPES buffered saline, Cat. No. PV5098), proprietary TR-FRET dilution buffer pH 7.5 (Cat. No. PV3574).
# PIK3CD substrate Phosphatidylinositol was obtained from Invitrogen (vesicules consisting of 2 mM PI in 50 mM HEPES pH7.5; Cat. No. PV5371). PIK3CG substrate Phosphatidylinositol-4,5-bisphosphate (PIP(4,5)2 was obtained from Invitrogen (PIP2:PS large unilamellar vesicules consisting of 1 mM PIP2: 19 mM PS in 50 mM HEPES pH7.5, 3 mM MgCl2, 1 mM EGTA; Cat. No. PV5100).
# Time-Resolved Fluorescence Resonance Energy Transfer (TR-FRET) is a technology based on energy transfer between two adjacent dyes, from an excited electron in one dye (the donor) to an electron of an adjacent dye (the acceptor) through resonance, then released as a photon. This energy transfer is detected by an increase in the fluorescence emission of the acceptor, and a decrease in the fluorescence emission of the donor. TR-FRET assays for protein kinases use a long-lifetime lanthanide Terbium or Europium chelates as the donor species which overcome interference from compound autofluorescence or light scatter from precipitated compounds, by introducing a delay after excitation by a flashlamp excitation source. Results are often expressed as a ratio of the intensities of the acceptor and donor fluorophores. The ratiometric nature of such a value corrects for differences in assay volumes between wells, as well as corrects for quenching effects due to colored compounds. The Adapta™ assay can be divided into two phases: a kinase reaction phase and an ADP detection phase. […]
# Chain of PI3Kgamma (P48736 whole entry, species assumed): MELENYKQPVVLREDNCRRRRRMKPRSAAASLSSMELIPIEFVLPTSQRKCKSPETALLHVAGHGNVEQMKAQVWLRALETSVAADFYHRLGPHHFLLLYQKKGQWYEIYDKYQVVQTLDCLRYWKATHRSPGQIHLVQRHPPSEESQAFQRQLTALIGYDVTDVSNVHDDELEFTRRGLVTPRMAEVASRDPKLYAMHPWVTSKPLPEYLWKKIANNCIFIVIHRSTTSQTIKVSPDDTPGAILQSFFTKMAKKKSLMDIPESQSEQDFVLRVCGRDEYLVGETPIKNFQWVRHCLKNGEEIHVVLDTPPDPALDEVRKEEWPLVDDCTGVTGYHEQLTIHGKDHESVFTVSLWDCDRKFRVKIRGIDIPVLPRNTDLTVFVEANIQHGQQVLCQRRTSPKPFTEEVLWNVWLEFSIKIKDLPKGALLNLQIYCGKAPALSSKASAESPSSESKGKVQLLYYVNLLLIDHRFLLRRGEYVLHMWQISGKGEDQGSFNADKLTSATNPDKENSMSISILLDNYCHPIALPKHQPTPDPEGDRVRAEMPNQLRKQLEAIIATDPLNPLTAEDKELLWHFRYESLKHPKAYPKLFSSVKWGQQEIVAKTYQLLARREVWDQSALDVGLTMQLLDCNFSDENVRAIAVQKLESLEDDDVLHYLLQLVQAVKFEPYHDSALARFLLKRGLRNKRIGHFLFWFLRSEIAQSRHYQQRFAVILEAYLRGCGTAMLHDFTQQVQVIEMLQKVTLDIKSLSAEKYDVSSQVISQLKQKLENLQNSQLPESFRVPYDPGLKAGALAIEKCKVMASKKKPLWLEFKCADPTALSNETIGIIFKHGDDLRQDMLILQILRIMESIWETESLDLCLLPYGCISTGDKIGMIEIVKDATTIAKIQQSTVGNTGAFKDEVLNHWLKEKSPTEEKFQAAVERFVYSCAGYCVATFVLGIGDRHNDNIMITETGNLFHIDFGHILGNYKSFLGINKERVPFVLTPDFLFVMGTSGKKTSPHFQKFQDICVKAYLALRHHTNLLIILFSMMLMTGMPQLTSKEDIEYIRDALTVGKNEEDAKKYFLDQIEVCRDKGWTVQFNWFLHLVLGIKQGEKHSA
row,IC50 [nM],Structure (SMILES)
1,1660,"C[C@H]1OC(=O)N(c2cc(-c3cnc(N)nc3C(F)(F)F)nc(N3CCOCC3)n2)[C@H]1COC=O [Example 12, Formic acid (4S,5R)-3-(2′-amino-2-morpholin-4-yl-4′-trifluoromethyl-[4,5′]bipyrimidinyl-6-yl)-5-methyl-2-oxo-oxazolidin-4-ylmethyl ester]"
2,276,"C[C@H]1COC(=O)N1c1cc(-c2cnc(N)nc2C(F)(F)F)nc(N2CCOCC2)n1 [Example 1, (S)-3-(2′-Amino-2-morpholin-4-yl-4′-trifluoromethyl-[4,5′]bipyrimidinyl-6-yl)-4-methyl-oxazolidin-2-one]"
3,410,"Nc1ncc(-c2cc(N3C(=O)OC4C(O)CCC43)nc(N3CCOCC3)n2)c(C(F)(F)F)n1 (single isomer, unassigned) [Example 22B]"
4,348,"CC1(C)OC(=O)N(c2cc(-c3cnc(N)nc3C(F)(F)F)nc(N3CCOCC3)n2)[C@H]1CO [Example 2, (S)-3-(2′-Amino-2-morpholin-4-yl-4′-trifluoromethyl-[4,5′]bipyrimidinyl-6-yl)-4-hydroxymethyl-5,5-dimethyl-oxazolidin-2-one]"
5,237,[2H]C1([2H])OC([2H])([2H])C([2H])([2H])N(c2nc(-c3cnc(N)nc3C(F)(F)F)cc(N3C(=O)O[C@H](C)[C@@H]3CO)n2)C1([2H])[2H] [Example 8]
6,1230,"Nc1ncc(-c2cc(N3C[C@@H](CO)OC3=O)nc(N3CCOCC3)n2)c(C(F)(F)F)n1 [Example 14, (S)-3-(2′-Amino-2-morpholin-4-yl-4′-trifluoromethyl-[4,5′]bipyrimidinyl-6-yl)-5-hydroxymethyl-oxazolidin-2-one]"
7,328,"[2H]C1([2H])OC([2H])([2H])C([2H])([2H])N(c2nc(-c3cnc(N)nc3C(F)(F)F)cc(N3C(=O)OC[C@@H]3C)n2)C1([2H])[2H] [Example 17, (S)-3-(2′-amino-2-D8-morpholino-4′-(trifluoromethyl)-[4,5′-bipyrimidin]-6-yl)-4-methyloxazolidin-2-one]"
8,290,"C[C@H]1C(CC(C)(C)O)OC(=O)N1c1cc(-c2cnc(N)nc2C(F)(F)F)nc(N2CCOCC2)n1 (mixture of isomers) [Example 26, (4S,5R)- and (4S,5S)-3-(2′-amino-2-morpholino-4′-(trifluoromethyl)-[4,5′-bipyrimidin]-6-yl)-5-(2-hydroxy-2-methylpropyl)-4-methyloxazolidin-2-one]"
9,253,"C[C@H]1OC(=O)N(c2cc(-c3cnc(N)nc3C(F)(F)F)nc(N3CCOCC3)n2)[C@H]1CO [Example 18, (4S,5R)-3-(2′-Amino-2-morpholin-4-yl-4′-trifluoromethyl-[4,5′]bipyrimidinyl-6-yl)-4-hydroxymethyl-5-methyl-oxazolidin-2-one]"
10,370,"Nc1ncc(-c2cc(N3C(=O)O[C@H]4COC[C@H]43)nc(N3CCOCC3)n2)c(C(F)(F)F)n1 [Example 21, (3aR,6aR)-3-(2′-amino-2-morpholino-4′-(trifluoromethyl)-[4,5′-bipyrimidin]-6-yl)-tetrahydrofuro[3,4-d]oxazol-2(3H)-one]"
11,998,"Nc1ncc(-c2cc(N3CCOC3=O)nc(N3CCOCC3)n2)c(C(F)(F)F)n1 [Example 11, 3-(2′-Amino-2-morpholin-4-yl-4′-trifluoromethyl-[4,5′]bipyrimidinyl-6-yl)-oxazolidin-2-one, reference compound]"
12,258,C[C@@H]1OC(=O)N(c2cc(-c3cnc(N)nc3C(F)(F)F)nc(N3CCOCC3)n2)[C@H]1CO [Example 6]
13,207,"C[C@H]1[C@@H](CCO)OC(=O)N1c1cc(-c2cnc(N)nc2C(F)(F)F)nc(N2CCOCC2)n1 [Example 23, (4S,5R)-3-(2′-Amino-2-morpholino-4′-(trifluoromethyl)-[4,5′-bipyrimidin]-6-yl)-5-(2-hydroxyethyl)-4-methyloxazolidin-2-one]"
14,770,"C[C@H]1CN(c2cc(-c3cnc(N)nc3C(F)(F)F)nc(N3CCOCC3)n2)C(=O)O1 [Example 16, (S)-3-(2′-Amino-2-morpholin-4-yl-4′-trifluoromethyl-[4,5′]bipyrimidinyl-6-yl)-5-methyl-oxazolidin-2-one]"
15,110,"Nc1ncc(-c2cc(N3C(=O)OC4C(O)CCC43)nc(N3CCOCC3)n2)c(C(F)(F)F)n1 (single isomer, unassigned) [Example 22A]"
16,238,"Nc1ncc(-c2cc(N3C(=O)O[C@H]4CCCC[C@@H]43)nc(N3CCOCC3)n2)c(C(F)(F)F)n1 [Example 4, (3aS,7aS)-3-(2′-Amino-2-morpholin-4-yl-4′-trifluoromethyl-[4,5′]bipyrimidinyl-6-yl)-hexahydro-benzooxazol-2-one]"
17,516,"CC1(CO)COC(=O)N1c1cc(-c2cnc(N)nc2C(F)(F)F)nc(N2CCOCC2)n1 (racemic) [Example 3, 3-(2′-amino-2-morpholino-4′-(trifluoromethyl)-4,5′-bipyrimidin-6-yl)-4-(hydroxymethyl)-4-methyloxazolidin-2-one]"
18,184,"C[C@H]1[C@@H](CO)OC(=O)N1c1cc(-c2cnc(N)nc2C(F)(F)F)nc(N2CCOCC2)n1 [Example 19, (4S,5S)-3-(2′-Amino-2-morpholin-4-yl-4′-trifluoromethyl-[4,5′]bipyrimidinyl-6-yl)-5-hydroxymethyl-4-methyl-oxazolidin-2-one]"
19,540,"C[C@@H](O)C[C@H]1OC(=O)N(c2cc(-c3cnc(N)nc3C(F)(F)F)nc(N3CCOCC3)n2)[C@H]1C (single isomer, unassigned) [Example 24]"
20,205,"C[C@H](O)CC1OC(=O)N(c2cc(-c3cnc(N)nc3C(F)(F)F)nc(N3CCOCC3)n2)[C@H]1C (single isomer, unassigned) [Example 25]"
21,338,"C[C@H]1[C@H](CO)OC(=O)N1c1cc(-c2cnc(N)nc2C(F)(F)F)nc(N2CCOCC2)n1 [Example 15, (4S,5R)-3-(2′-Amino-2-morpholin-4-yl-4′-trifluoromethyl-[4,5′]bipyrimidinyl-6-yl)-5-hydroxymethyl-4-methyl-oxazolidin-2-one]"
22,1130,"Nc1ncc(-c2cc(N3C(=O)OC[C@@H]3CCO)nc(N3CCOCC3)n2)c(C(F)(F)F)n1 [Example 9, (S)-3-(2′-Amino-2-morpholin-4-yl-4′-trifluoromethyl-[4,5′]bipyrimidinyl-6-yl)-4-(2-hydroxy-ethyl)-oxazolidin-2-one]"
23,329,"COC[C@H]1COC(=O)N1c1cc(-c2cnc(N)nc2C(F)(F)F)nc(N2CCOCC2)n1 [Example 5, (S)-3-(2′-Amino-2-morpholin-4-yl-4′-trifluoromethyl-[4,5′]bipyrimidinyl-6-yl)-4-methoxymethyl-oxazolidin-2-one]"
24,145,"Nc1ncc(-c2cc(N3C(=O)O[C@@H]4[C@@H](O)CC[C@@H]43)nc(N3CCOCC3)n2)c(C(F)(F)F)n1 (racemic) [Example 22, (3aR*,6R*,6aR*)-3-(2′-Amino-2-morpholino-4′-(trifluoromethyl)-[4,5′-bipyrimidin]-6-yl)-6-hydroxyhexahydro-2H-cyclopenta[d]oxazol-2-one]"
25,386,"C[C@H]1COCCN1c1nc(-c2cnc(N)nc2C(F)(F)F)cc(N2C(=O)OC[C@@H]2C)n1 [Example 13, (S)-3-[2′-Amino-2-((S)-3-methyl-morpholin-4-yl)-4′-trifluoromethyl-[4,5′]bipyrimidinyl-6-yl]-4-methyl-oxazolidin-2-one]"
26,601,"Nc1ncc(-c2cc(N3C[C@H](CO)OC3=O)nc(N3CCOCC3)n2)c(C(F)(F)F)n1 [Example 20, (R)-3-(2′-Amino-2-morpholin-4-yl-4′-trifluoromethyl-[4,5′]bipyrimidinyl-6-yl)-5-hydroxymethyl-oxazolidin-2-one]"

# Source: patent US8865894B2, “Oxazolidin-2-one compounds and uses thereof” (Novartis AG, priority 2012, dated 2014)
